# Experimental data taken from ChEMBL document CHEMBL5370598, “[3H]UR-JG102-A Radiolabeled Cyclic Peptide with High Affinity and Excellent Selectivity for the Neuropeptide Y Y4 Receptor” (J Med Chem, 2023).
# Starred links: 1 amine or outer side, 2 acyl side, 3 side chain; linkers in the order of their positions; H or OH if unused. Positions of bridges follow the written chain, without caps; N, C: chain ends. Non-standard residues stand in square brackets, D forms with d. Residues, ends and D or L forms follow the SMILES beside them. *: point of attachment. Arg(Nω-CO) = N/C(=N\C(=O)[*:3])NCCC[C@H](N[*:1])C(=O)[*:2]; Ethylenediamine = C(CN[*:2])N[*:1]; Propionyl = CCC(=O)*
# Assays:
# [1] = target: T1, Neuropeptide Y receptor type 4 (Homo sapiens, UniProt P50391); test: Displacement of [3H]UR-KK200 from human Y4R expressed in CHO cells co-expressing Gqi5-mtAEQ; assay type: cell-based
# T1 sequence (P50391 whole entry): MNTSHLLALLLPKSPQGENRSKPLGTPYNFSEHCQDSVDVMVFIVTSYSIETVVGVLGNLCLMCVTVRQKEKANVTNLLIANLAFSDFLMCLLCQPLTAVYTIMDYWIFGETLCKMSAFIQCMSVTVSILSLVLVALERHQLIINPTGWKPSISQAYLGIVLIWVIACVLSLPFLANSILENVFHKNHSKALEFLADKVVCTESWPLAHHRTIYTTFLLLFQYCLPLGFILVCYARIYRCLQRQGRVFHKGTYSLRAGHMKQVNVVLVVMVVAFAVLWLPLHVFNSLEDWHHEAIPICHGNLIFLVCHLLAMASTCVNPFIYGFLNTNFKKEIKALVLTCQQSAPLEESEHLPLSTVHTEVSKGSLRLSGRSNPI
# [2] = target: T1, Neuropeptide Y receptor type 4; test: Agonist activity at human Y4R expressed in CHO cells co-expressing Gqi5-mtAEQ by calcium2+ aequorin assay relative to control; assay type: functional, cell-based; details: filed as agonist
# [3] = target: T2, Neuropeptide Y receptor type 1 (Homo sapiens, UniProt P25929); test: Displacement of [3H]UR-MK299 from human Y1R expressed in SK-N-MC cells; assay type: cell-based
# T2 sequence (P25929 whole entry): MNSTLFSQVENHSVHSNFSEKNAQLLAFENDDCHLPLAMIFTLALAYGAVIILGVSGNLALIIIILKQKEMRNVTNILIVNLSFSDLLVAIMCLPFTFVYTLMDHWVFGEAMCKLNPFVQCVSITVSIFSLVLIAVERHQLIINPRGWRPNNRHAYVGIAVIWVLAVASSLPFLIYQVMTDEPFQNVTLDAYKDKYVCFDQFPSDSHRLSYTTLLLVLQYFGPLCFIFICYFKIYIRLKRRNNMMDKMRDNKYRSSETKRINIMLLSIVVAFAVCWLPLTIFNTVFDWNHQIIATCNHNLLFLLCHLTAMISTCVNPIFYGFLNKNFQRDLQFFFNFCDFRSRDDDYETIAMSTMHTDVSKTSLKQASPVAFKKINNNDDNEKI
# [4] = target: T1, Neuropeptide Y receptor type 4; test: Agonist activity at human Y4R expressed in HEK293T cells incubated for 60 mins by cAMP CAMYEN assay relative to control; assay type: functional, cell-based; details: filed as agonist
# [5] = target: T1, Neuropeptide Y receptor type 4; test: Agonist activity at human Y4R expressed in CHO cells co-expressing Gqi5-mtAEQ by calcium2+ aequorin assay; assay type: functional, cell-based
# [6] = target: T1, Neuropeptide Y receptor type 4; test: Agonist activity at human Y4R expressed in HEK293T cells incubated for 60 mins by cAMP CAMYEN assay; assay type: functional, cell-based
# [7] = target: T1, Neuropeptide Y receptor type 4; test: Agonist activity at human Y4R expressed in HEK293T cells by miniGsi assay relative to control; assay type: functional, cell-based; details: filed as agonist
# [8] = target: T1, Neuropeptide Y receptor type 4; test: Agonist activity at human Y4R expressed in HEK293T cells by miniGsi assay; assay type: functional, cell-based
# [9] = target: T3, Neuropeptide Y receptor type 2 (Homo sapiens, UniProt P49146); test: Displacement of [3H]propionyl-pNPY from human Y2R expressed in CHO cells; assay type: cell-based
# T3 sequence (P49146 whole entry): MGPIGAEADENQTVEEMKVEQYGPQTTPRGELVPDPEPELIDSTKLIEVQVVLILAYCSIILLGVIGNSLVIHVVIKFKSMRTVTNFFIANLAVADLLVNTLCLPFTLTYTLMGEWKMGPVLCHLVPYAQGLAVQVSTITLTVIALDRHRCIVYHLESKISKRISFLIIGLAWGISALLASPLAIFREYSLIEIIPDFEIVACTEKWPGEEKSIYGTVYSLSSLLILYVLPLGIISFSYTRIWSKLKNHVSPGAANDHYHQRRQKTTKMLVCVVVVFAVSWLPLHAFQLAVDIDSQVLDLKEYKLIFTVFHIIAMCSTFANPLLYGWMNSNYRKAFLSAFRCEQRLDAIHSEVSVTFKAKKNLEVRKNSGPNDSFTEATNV
# [10] = target: T4, Neuropeptide Y receptor type 5 (Homo sapiens, UniProt Q15761); test: Displacement of [3H]propionyl-pNPY from human Y5R expressed in HEC-1B cells; assay type: cell-based, HEC-1B cell line
# T4 sequence (Q15761 whole entry): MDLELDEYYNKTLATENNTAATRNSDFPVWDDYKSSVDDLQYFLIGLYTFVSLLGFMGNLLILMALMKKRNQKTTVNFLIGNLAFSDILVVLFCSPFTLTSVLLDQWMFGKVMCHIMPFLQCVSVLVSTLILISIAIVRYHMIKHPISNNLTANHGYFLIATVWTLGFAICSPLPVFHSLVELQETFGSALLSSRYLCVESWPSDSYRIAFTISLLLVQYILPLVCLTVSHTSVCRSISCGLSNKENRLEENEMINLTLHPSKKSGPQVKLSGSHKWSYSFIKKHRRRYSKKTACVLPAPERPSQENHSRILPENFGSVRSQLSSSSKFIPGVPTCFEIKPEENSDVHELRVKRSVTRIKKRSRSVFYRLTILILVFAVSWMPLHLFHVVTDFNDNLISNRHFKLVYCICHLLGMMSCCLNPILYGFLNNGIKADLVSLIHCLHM
# [11] = target: T1, Neuropeptide Y receptor type 4; test: (§1) Displacement of [3H]-(9S,12S,15S,19R,E)-4-amino-N-((S)-1-(((S)-1-(((S)-1-amino-3-(4-hydroxyphenyl)-1-oxopropan-2-yl)amino)-5-guanidino-1-oxopentan-2-yl)amino)-4-methyl-1-oxopentan-2-yl)-15-(3-guanidinopropyl)-12-(4-hydroxybenzyl)-2,11,14,17,20-pentaoxo-19-(4-(propanamido-2,3-t2)butanamido)-1,3,5,10,13,16,21-heptaazacyclopentacos-3-ene-9-carboxamide from human Y4R expressed in CHO cells coexpressing Gqi5-mtAEQ under isotonic sodium containing buffer condition; assay type: cell-based
# [12] = target: T1, Neuropeptide Y receptor type 4; test: as §1, with “hypotonic” for “isotonic”, “free” for “containing”; assay type: cell-based
Ki ([1]; read-out: Ki) [nM],Emax [2] [%],Ki ([3]; read-out: pKi (converted)) [nM],"Ki ([3]; sk-n-mc, read-out: Ki) [nM]",Emax [4] [%],EC50 ([5]; read-out: EC50) [nM],EC50 ([6]; read-out: EC50) [nM],Emax [7] [%],EC50 [8] [nM],Ki ([9]; read-out: pKi (converted)) [nM],"Ki ([10]; hec-1b cell line, read-out: Ki) [nM]",Ki ([10]; read-out: pKi (converted)) [nM],EC50 ([5]; read-out: pEC50 (converted)) [nM],"Ki ([9]; cho, read-out: Ki) [nM]",SMILES,further results
0.12,70,> 1000,> 1000,81,22,0.11,64,2.6,> 3160,> 1000,> 1000,,,CCC(=O)N[C@@H]1CC(=O)NCCCCNC(=O)/N=C(\N)NCCC[C@@H](C(=O)N[C@@H](CC(C)C)C(=O)N[C@@H](CCCNC(=N)N)C(=O)N[C@@H](Cc2ccc(O)cc2)C(N)=O)NC(=O)[C@H](Cc2ccc(O)cc2)NC(=O)[C@H](CCCNC(=N)N)NC1=O,Ki ([1]; read-out: pKi (converted)): 0.11 nM; Ki ([9]; read-out: Ki): > 3000 nM
0.26,66,> 1000,> 1000,86,71,0.41,70,19,> 3160,> 1000,> 1000,,,CCC(=O)N[C@H]1CCC(=O)NCCNC(=O)/N=C(\N)NCCC[C@@H](C(=O)N[C@@H](CC(C)C)C(=O)N[C@@H](CCCNC(=N)N)C(=O)N[C@@H](Cc2ccc(O)cc2)C(N)=O)NC(=O)[C@H](Cc2ccc(O)cc2)NC(=O)[C@H](CCCNC(=N)N)NC1=O (Propionyl-ERY[Arg(Nω-CO)]LRY-NH2; linker 1-4 via Ethylenediamine),Ki ([9]; read-out: Ki): > 3000 nM
0.066,74,> 1000,> 1000,85,9,0.063,51,1.6,> 10000,> 1000,> 1000,6.31,> 10000,CCC(=O)N[C@@H]1CC(=O)N[C@@H](CCCNC(=N)N)C(=O)N[C@@H](Cc2ccc(O)cc2)C(=O)N[C@H](C(=O)N[C@@H](CC(C)C)C(=O)N[C@@H](CCCNC(=N)N)C(=O)N[C@@H](Cc2ccc(O)cc2)C(N)=O)CCCN/C(N)=N/C(=O)NCCCCNC1=O,EC50 ([6]; read-out: pEC50 (converted)): 0.0501 nM
0.041,79,> 1000,> 1000,,8,,56,1.1,> 10000,> 1000,> 1000,,> 10000,CC(C)C[C@H](NC(=O)[C@@H]1CCCN/C(N)=N/C(=O)NCCCCNC(=O)[C@H](N)CC(=O)N[C@@H](CCCNC(=N)N)C(=O)N[C@@H](Cc2ccc(O)cc2)C(=O)N1)C(=O)N[C@@H](CCCNC(=N)N)C(=O)N[C@@H](Cc1ccc(O)cc1)C(N)=O,
0.17,65,> 1000,> 1000,,60,,67,10,> 10000,> 1000,> 1000,,> 10000,CC(C)C[C@H](NC(=O)[C@@H]1CCCN/C(N)=N/C(=O)NCCNC(=O)CC[C@H](N)C(=O)N[C@@H](CCCNC(=N)N)C(=O)N[C@@H](Cc2ccc(O)cc2)C(=O)N1)C(=O)N[C@@H](CCCNC(=N)N)C(=O)N[C@@H](Cc1ccc(O)cc1)C(N)=O (H-ERY[Arg(Nω-CO)]LRY-NH2; linker 1-4 via Ethylenediamine),
0.11,64,> 1000,> 1000,83,23,0.2,46,8.1,> 10000,> 1000,> 1000,20,> 10000,CCC(=O)N[C@H]1CC(=O)NCCCCNC(=O)/N=C(\N)NCCC[C@@H](C(=O)N[C@@H](CC(C)C)C(=O)N[C@@H](CCCNC(=N)N)C(=O)N[C@@H](Cc2ccc(O)cc2)C(N)=O)NC(=O)[C@H](Cc2ccc(O)cc2)NC(=O)[C@H](CCCNC(=N)N)NC1=O,
0.026,85,> 1000,> 1000,,5,,59,1.1,> 10000,> 1000,> 1000,,> 10000,CC(C)C[C@H](NC(=O)[C@@H]1CCCN/C(N)=N/C(=O)NCCCCNC(=O)[C@@H](N)CC(=O)N[C@@H](CCCNC(=N)N)C(=O)N[C@@H](Cc2ccc(O)cc2)C(=O)N1)C(=O)N[C@@H](CCCNC(=N)N)C(=O)N[C@@H](Cc1ccc(O)cc1)C(N)=O,Ki ([1]; read-out: pKi (converted)): 0.0245 nM
0.093,69,> 1000,> 1000,,18,,62,2.5,912,> 1000,> 1000,,,CC(C)C[C@H](NC(=O)[C@@H]1CCCN/C(N)=N/C(=O)NCCCCNC(=O)[C@H](NC(=O)CCCN)CC(=O)N[C@@H](CCCNC(=N)N)C(=O)N[C@@H](Cc2ccc(O)cc2)C(=O)N1)C(=O)N[C@@H](CCCNC(=N)N)C(=O)N[C@@H](Cc1ccc(O)cc1)C(N)=O,Ki ([1]; read-out: pKi (converted)): 0.0912 nM; Ki ([9]; read-out: Ki): > 948 nM
0.15,80,> 1000,> 1000,82,24,0.13,58,3.8,> 10000,> 1000,> 1000,22.4,> 10000,CCC(=O)N[C@H]1CC(=O)N[C@@H](CCCNC(=N)N)C(=O)N[C@@H](Cc2ccc(O)cc2)C(=O)N[C@H](C(=O)N[C@@H](CC(C)C)C(=O)N[C@@H](CCCNC(=N)N)C(=O)N[C@@H](Cc2ccc(O)cc2)C(N)=O)CCCN/C(N)=N/C(=O)NCCCCNC1=O,
0.33,70,> 3160,,,19,,55,4.7,> 10000,> 1000,> 1000,13.2,> 10000,CC(C)C[C@H](NC(=O)[C@@H]1CCCN/C(N)=N/C(=O)NCCCCNC(=O)C[C@H](N)C(=O)N[C@@H](CCCNC(=N)N)C(=O)N[C@@H](Cc2ccc(O)cc2)C(=O)N1)C(=O)N[C@@H](CCCNC(=N)N)C(=O)N[C@@H](Cc1ccc(O)cc1)C(N)=O,Ki ([3]; read-out: Ki): > 3000 nM
,100,,,113,,0.17,,,,,,,,CC(C)C[C@H](NC(=O)[C@@H]1CCCNC(=N)NC(=O)NCCCCNC(=O)CCC(=O)N[C@@H](CCCNC(=N)N)C(=O)N[C@@H](Cc2ccc(O)cc2)C(=O)N1)C(=O)N[C@@H](CCCNC(=N)N)C(=O)N[C@@H](Cc1ccc(O)cc1)C(N)=O,Ki ([11]; read-out: Ki): 0.076 nM; Ki ([11]; read-out: pKi (converted)): 0.0741 nM; Ki ([12]; read-out: Ki): 0.011 nM; Ki ([12]; read-out: pKi (converted)): 0.00912 nM; EC50 ([6]; read-out: pEC50 (converted)): 0.162 nM
0.031,63,> 1000,> 1000,,11,,68,0.89,> 10000,> 1000,> 1000,,> 10000,CC(C)C[C@H](NC(=O)[C@@H]1CCCN/C(N)=N/C(=O)NCCCCNC(=O)C[C@@H](N)C(=O)N[C@@H](CCCNC(=N)N)C(=O)N[C@@H](Cc2ccc(O)cc2)C(=O)N1)C(=O)N[C@@H](CCCNC(=N)N)C(=O)N[C@@H](Cc1ccc(O)cc1)C(N)=O,
